In brackets after ≈: the same amount, converted by molar mass. Like-named read-outs stand apart in the source and are kept apart here. Starred links: 1 amine or outer side, 2 acyl side, 3 side chain; linkers in the order of their positions; H or OH if unused. Positions of bridges follow the written chain, without caps; N, C: chain ends. Residues, ends and D or L forms follow the SMILES beside them. *: point of attachment. C20 diacid = O=C(O)CCCCCCCCCCCCCCCCCCC(=O)*; C18 diacid = O=C(O)CCCCCCCCCCCCCCCCC(=O)*; γGlu = O=C(O)[C@H](CCC(=O)[*:2])N[*:1]
Tests used:
[1] = Assay (IV) determination of solubility; type: physicochemical
Procedure, shortened: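 Solubility was profiled across pH 3.0–8.0 after 18 hours at room temperature: a ~500 nmol/ml aqueous polypeptide solution was diluted 1:1 into 100 mM glycylglycine or bistrispropane buffers. After centrifugation, HPLC gave the dissolved concentration.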

[2] = target: T1, human calcitonin receptor (Homo sapiens, UniProt P30988); test: Assay (II)a functional CRE-luciferase assay, human calcitonin receptor; type: cell-based; details: Table 7; human calcitonin (CTa) receptor
T1 construct: expressed in transfected cells; host or cells: BHK570
T1 sequence (P30988 25-474): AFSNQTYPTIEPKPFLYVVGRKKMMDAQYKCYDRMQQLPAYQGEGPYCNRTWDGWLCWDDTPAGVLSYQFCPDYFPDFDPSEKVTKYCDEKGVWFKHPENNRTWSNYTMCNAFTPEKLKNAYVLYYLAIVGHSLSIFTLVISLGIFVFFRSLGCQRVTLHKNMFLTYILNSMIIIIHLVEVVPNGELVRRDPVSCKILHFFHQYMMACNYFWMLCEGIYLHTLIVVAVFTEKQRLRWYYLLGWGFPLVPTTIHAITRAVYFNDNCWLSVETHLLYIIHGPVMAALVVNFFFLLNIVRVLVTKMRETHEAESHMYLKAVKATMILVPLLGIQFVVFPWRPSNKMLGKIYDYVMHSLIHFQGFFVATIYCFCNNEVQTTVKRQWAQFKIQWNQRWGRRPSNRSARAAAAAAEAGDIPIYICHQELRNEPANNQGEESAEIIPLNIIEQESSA

[3] = target: T2, human amylin receptor (amylin 3(a) receptor: human calcitonin receptor + RAMP-3) (Homo sapiens, UniProt O60896+P30988); test: Assay (II)a functional CRE-luciferase assay, human amylin receptor; type: cell-based; details: Table 2; BHK amylin 3(a)-receptor/CRE-luc cells
T2 construct: expressed in transfected cells; host or cells: BHK570
T2 sequence (P30988 25-474): T1 sequence (P30988 25-474)
T2 sequence (O60896 24-148 partner): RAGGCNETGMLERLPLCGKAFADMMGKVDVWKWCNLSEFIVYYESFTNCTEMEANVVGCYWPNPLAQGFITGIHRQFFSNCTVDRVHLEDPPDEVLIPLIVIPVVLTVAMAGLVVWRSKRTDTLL

[4] = Assay (III) ThT fibrillation assay for physical stability; type: physicochemical
Procedure, shortened: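 Freshly prepared formulations, pH-adjusted, with 1 μM ThT; four or eight replicates incubated at 37 °C under 960 rpm orbital shaking. Fluorescence (ex 444/em 485 nm) read every 20 min; […]. Peptide concentration measured by RP-HPLC before and after the run.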

[5] = bistrispropane buffer, pH 6, pH 6.0, read-out: Solubility pH 6.0
[6] = bistrispropane buffer, pH 6.5, pH 6.5, read-out: Solubility pH 6.5
[7] = bistrispropane buffer, pH 7, pH 7.0, 18 hours at room temperature, Table 3, read-out: Solubility pH 7.0
[8] = bistrispropane buffer, pH 7, pH 7.0, read-out: Solubility pH 7.0
[9] = bistrispropane buffer, pH 7.5, pH 7.5, read-out: Solubility pH 7.5
[10] = bistrispropane buffer, pH 8, pH 8.0, read-out: Solubility pH 8.0
[11] = glycylglycine buffer, pH 3, pH 3.0, read-out: Solubility pH 3.0
[12] = glycylglycine buffer, pH 4, pH 4.0, 18 hours at room temperature, Table 2, read-out: Solubility pH 4.0
[13] = glycylglycine buffer, pH 4, pH 4.0, read-out: Solubility pH 4.0
[14] = glycylglycine buffer, pH 5, pH 5.0, read-out: Solubility pH 5.0
[15] = bistrispropane buffer, pH 7, pH 7.0, Table 8, read-out: Solubility pH 7.0

Row | solubility at 18 h [1, 5] | solubility at 18 h [1, 6] | solubility at 18 h [1, 7] | solubility at 18 h [1, 8] | solubility at 18 h [1, 9] | solubility at 18 h [1, 10] | solubility at 18 h [1, 11] | solubility at 18 h [1, 12] | solubility at 18 h [1, 13] | solubility at 18 h [1, 14] | EC50 [2] | EC50 [3] | ThT pH 4.0 lag time (h) ([4]; ThT fibrillation assay) | solubility at 18 h [1, 15] | ThT pH 4.0 lag time ([4]; Table 8) | ThT pH 4.0 lag time ([4]; ThT fibrillation assay) | solubility at 18 h ([1]; bistrispropane buffer, pH 7, pH 7.0, Table 9, read-out: Solubility pH 7.0) | solubility at 18 h ([1]; bistrispropane buffer, pH 7.5, pH 7.5, Table 9, read-out: Solubility pH 7.5) | ThT pH 4.0 lag time ([4]; Table 9) | Compound
1 | 168 µM (≈ 768 µg/mL) | 87 µM (≈ 398 µg/mL) | 118 µM (≈ 540 µg/mL) | 118 µM (≈ 540 µg/mL) | > 200 µM | > 200 µM | > 200 µM | > 200 µM | > 200 µM | > 200 µM | 258 pM | 59 pM | 6 h | – | – | – | – | – | – | CC[C@H](C)[C@H](NC(=O)[C@@H]1CCCN1C(=O)CNC(=O)[C@H](Cc1ccccc1)NC(=O)[C@H](CC(N)=O)NC(=O)[C@H](CC(N)=O)NC(=O)[C@H](CO)NC(=O)[C@H](CO)NC(=O)[C@H](Cc1c[nH]cn1)NC(=O)[C@H](Cc1c[nH]cn1)NC(=O)[C@H](CC(C)C)NC(=O)[C@H](Cc1ccccc1)NC(=O)[C@H](CCC(=O)O)NC(=O)[C@H](C)NC(=O)[C@H](CC(C)C)NC(=O)[C@H](CCCNC(=N)N)NC(=O)[C@H](CCC(N)=O)NC(=O)[C@@H](NC(=O)[C@H](C)NC(=O)[C@@H]1CSSC[C@H](NC(=O)[C@H](Cc2c[nH]cn2)NC(=O)[C@H](Cc2c[nH]cn2)NC(=O)CC[C@H](NC(=O)CCCCCCCCCCCCCCCCC(=O)O)C(=O)O)C(=O)N[C@@H](CC(N)=O)C(=O)N[C@@H]([C@@H](C)O)C(=O)N[C@@H](C)C(=O)N[C@@H]([C@@H](C)O)C(=O)N1)[C@@H](C)O)C(=O)N[C@@H](CC(C)C)C(=O)N1CCC[C@H]1C(=O)N1CCC[C@H]1C(=O)N[C@H](C(=O)N[C@@H](CC(N)=O)C(=O)N[C@H](C(=O)NCC(=O)N[C@@H](CO)C(=O)N[C@@H](CC(N)=O)C(=O)N[C@H](C(=O)N[C@@H](Cc1ccc(O)cc1)C(N)=O)[C@@H](C)O)C(C)C)[C@@H](C)O [Example 47, N-alpha-[(S)-4-Carboxy-4-(17-carboxyheptadecanoylamino)butyryl]-His-[His1,Glu14,His17]-pramlintide] ({C18 diacid-γGlu}-HHCNTATCATQRLAEFLHHSSNNFGPILPPTNVGSNTY-NH2; disulfide 3-8 (inferred); C-terminus assumed)
2 | > 200 µM | > 200 µM | > 200 µM | > 200 µM | > 200 µM | > 200 µM | > 200 µM | > 200 µM | > 200 µM | > 200 µM | 52 pM | 54 pM | 29 h | > 200 µM | 29 h | 29 h | – | – | – | CC[C@H](C)[C@H](NC(=O)[C@@H]1CCCN1C(=O)CNC(=O)[C@H](Cc1ccccc1)NC(=O)[C@H](CC(N)=O)NC(=O)[C@H](CC(N)=O)NC(=O)[C@H](CO)NC(=O)[C@H](CO)NC(=O)[C@H](Cc1c[nH]cn1)NC(=O)[C@H](Cc1c[nH]cn1)NC(=O)[C@H](CC(C)C)NC(=O)[C@H](Cc1ccccc1)NC(=O)[C@H](CCC(=O)O)NC(=O)[C@H](C)NC(=O)[C@H](CC(C)C)NC(=O)[C@H](CCCNC(=N)N)NC(=O)[C@H](CCC(N)=O)NC(=O)[C@@H](NC(=O)[C@H](C)NC(=O)[C@@H]1CSSC[C@H](NC(=O)CNC(=O)CC[C@H](NC(=O)CCCCCCCCCCCCCCCCCCC(=O)O)C(=O)O)C(=O)N[C@@H](CC(N)=O)C(=O)N[C@@H]([C@@H](C)O)C(=O)N[C@@H](C)C(=O)N[C@@H]([C@@H](C)O)C(=O)N1)[C@@H](C)O)C(=O)N[C@@H](CC(C)C)C(=O)N1CCC[C@H]1C(=O)N1CCC[C@H]1C(=O)N[C@H](C(=O)N[C@@H](CC(N)=O)C(=O)N[C@H](C(=O)NCC(=O)N[C@@H](CO)C(=O)N[C@@H](CC(N)=O)C(=O)N[C@H](C(=O)N1CCC[C@H]1C(N)=O)[C@@H](C)O)C(C)C)[C@@H](C)O [Example 91, N-alpha-[(S)-4-Carboxy-4-(19-carboxynonadecanoylamino)butyryl]-[Gly1,Glu14,His17,Pro37]-pramlintide] ({C20 diacid-γGlu}-GCNTATCATQRLAEFLHHSSNNFGPILPPTNVGSNTP-NH2; disulfide 2-7 (inferred); C-terminus assumed)
3 | > 200 µM | > 200 µM | > 200 µM | > 200 µM | > 200 µM | > 200 µM | > 200 µM | > 200 µM | > 200 µM | > 200 µM | 59.5 pM | 91 pM | >45 h | > 200 µM | >45 h | >45 h | > 200 µM | > 200 µM | >45 h | CC[C@H](C)[C@H](NC(=O)[C@@H]1CCCN1C(=O)CNC(=O)[C@H](Cc1ccccc1)NC(=O)[C@H](CC(N)=O)NC(=O)[C@@H](NC(=O)[C@H](CO)NC(=O)[C@H](CO)NC(=O)[C@H](Cc1c[nH]cn1)NC(=O)[C@H](Cc1c[nH]cn1)NC(=O)[C@H](CC(C)C)NC(=O)[C@H](Cc1ccccc1)NC(=O)[C@H](CCC(=O)O)NC(=O)[C@H](C)NC(=O)[C@H](CC(C)C)NC(=O)[C@H](CCCNC(=N)N)NC(=O)[C@H](CCC(N)=O)NC(=O)[C@@H](NC(=O)[C@H](C)NC(=O)[C@@H]1CSSC[C@H](NC(=O)[C@H](CCCCN)NC(=O)CC[C@H](NC(=O)CCCCCCCCCCCCCCCCCCC(=O)O)C(=O)O)C(=O)N[C@@H](CC(N)=O)C(=O)N[C@@H]([C@@H](C)O)C(=O)N[C@@H](C)C(=O)N[C@@H]([C@@H](C)O)C(=O)N1)[C@@H](C)O)[C@@H](C)O)C(=O)N[C@@H](CC(C)C)C(=O)N1CCC[C@H]1C(=O)N1CCC[C@H]1C(=O)N[C@H](C(=O)N[C@@H](CC(N)=O)C(=O)N[C@H](C(=O)NCC(=O)N[C@@H](CO)C(=O)N[C@@H](CC(N)=O)C(=O)N[C@H](C(=O)N1CCC[C@H]1C(N)=O)[C@@H](C)O)C(C)C)[C@@H](C)O [Example 146, N-alpha-[(S)-4-Carboxy-4-(19-carboxynonadecanoylamino)butyryl]-[Glu14,His17,Thr21,Pro37]-pramlintide] ({C20 diacid-γGlu}-KCNTATCATQRLAEFLHHSSTNFGPILPPTNVGSNTP-NH2; disulfide 2-7 (inferred))
